Data: ChEMBL document CHEMBL5143624, “WCK 1152, WCK 1153: Discovery and structure activity relationship for the treatment of resistant pneumococcal and staphylococcal respiratory infections” (Bioorg Med Chem Lett, 2022)
Converted amounts (≈) assume the structure as drawn.

Key:
Staphylococcus aureus [1] = test: Antibacterial activity against methicillin resistant Staphylococcus aureus assessed as inhibition of bacterial growth incubated for 18 hrs by CLSI based serial agar dilution method; assay type: functional
Streptococcus pneumoniae [2] = test: Antibacterial activity against Streptococcus pneumoniae assessed as inhibition of bacterial growth incubated for 18 hrs by CLSI based serial agar dilution method; assay type: functional
Streptococcus pneumoniae [3] = test: Antibacterial activity against fluoroquinolone efflux positive Streptococcus pneumoniae 706 assessed as inhibition of bacterial growth incubated for 18 hrs by CLSI based serial agar dilution method; assay type: functional
Staphylococcus aureus [4] = test: Antibacterial activity against methicillin resistant Staphylococcus aureus 032 assessed as inhibition of bacterial growth incubated for 18 hrs by CLSI based serial agar dilution method; assay type: functional
Streptococcus pneumoniae [5] = test: Antibacterial activity against beta-lactams, macrolide and fluoroquinolone resistant Streptococcus pneumoniae 718 assessed as inhibition of bacterial growth incubated for 18 hrs by CLSI based serial agar dilution method; assay type: functional
[6] = Mutagenicity in Swiss mouse assessed as chromosomal aberration in bone marrow cells at 400 mg/kg, po measured after 24 hrs relative to control; assay type: toxicity, organism-based; settings: in vivo
Streptococcus pneumoniae [7] = test: Antibacterial activity against Streptococcus pneumoniae 5844 harbouring moxifloxacin resistant DNA gyrase and topoisomerase IV mutant assessed as inhibition of bacterial growth incubated for 18 hrs by CLSI based serial agar dilution method; assay type: functional; settings: Streptococcus pneumoniae, 5844, 18 h
Streptococcus pneumoniae [8] = test: Antibacterial activity against beta-lactams, macrolide and fluoroquinolone resistant Streptococcus pneumoniae 718 infected in po dosed Swiss mouse septicemia model assessed as protective dose administered on 1 and 5 hrs post infection and measured on day 7; assay type: functional, organism-based
Staphylococcus aureus [9] = test: Antibacterial activity against methicillin resistant Staphylococcus aureus 5076 assessed as inhibition of bacterial growth incubated for 18 hrs by CLSI based serial agar dilution method; assay type: functional
Staphylococcus aureus [10] = test: Antibacterial activity against methicillin resistant Staphylococcus aureus 5076 harbouring DNA gyrase and topoisomerase IV mutant and efflux pump assessed as inhibition of bacterial growth incubated for 18 hrs in presence of efflux inhibitor by CLSI based serial agar dilution method; assay type: functional
Staphylococcus aureus [11] = test: Antibacterial activity against Staphylococcus aureus […] assessed as inhibition of bacterial growth incubated for 18 hrs by CLSI based serial agar dilution method; assay type: functional
[12] = Staphylococcus aureus, read-out: MIC
[13] = Streptococcus pneumoniae, 18 h, read-out: MIC
[14] = Staphylococcus aureus, 032, 18 h, read-out: MIC

| SMILES | MIC (Staphylococcus aureus [1]; [12]) | MIC (Streptococcus pneumoniae [2]; [13]) | other results |
| --- | --- | --- | --- |
| CNC1CCN(c2c(F)cc3c(=O)c(C(=O)O)cn(C4CC4)c3c2OC)CC1C (centres undefined) | 0.2 µg/mL (≈ 0.496 µM) | 1.56 µg/mL (≈ 3.87 µM) | – |
| CCNC1CCN(c2c(F)cc3c(=O)c(C(=O)O)cn(C4CC4)c3c2OC)CC1(C)C (centres undefined) | 0.2 µg/mL (≈ 0.463 µM) | 1.56 µg/mL (≈ 3.62 µM) | MIC (Streptococcus pneumoniae [3]): 1.56 µg/mL (≈ 3.62 µM) |
| Cc1c(N2CCC(O)C(C)C2)c(F)cc2c(=O)c(C(=O)O)cn(C3CC3)c12 (stereo in doubt; form 1) | – | – | MIC (Staphylococcus aureus [4]; [14]): 0.2 µg/mL (≈ 0.534 µM); MIC (Streptococcus pneumoniae [5]; Streptococcus pneumoniae, 718, 18 h, read-out: MIC): 0.2 µg/mL (≈ 0.534 µM) |
| COc1c(N2CCC(N(C)C)C(C)(C)C2)c(F)cc2c(=O)c(C(=O)O)cn(C3CC3)c12 (centres undefined) | 0.2 µg/mL (≈ 0.463 µM) | 0.4 µg/mL (≈ 0.927 µM) | – |
| CNC1C(C)CN(c2c(F)cc3c(=O)c(C(=O)O)cn(C4CC4)c3c2OC)CC1C (centres undefined) | 0.1 µg/mL (≈ 0.24 µM) | 0.4 µg/mL (≈ 0.958 µM) | – |
| COc1c(N2CCC(N)C(C)(C)C2)c(F)cc2c(=O)c(C(=O)O)cn(C3CC3)c12 (stereo in doubt; form 2) | – | – | Activity [6]: 12% |
| CC1(C)CN(c2c(F)c(N)c3c(=O)c(C(=O)O)cn(C4CC4)c3c2F)CCC1N (centres undefined) | 3.12 µg/mL (≈ 7.68 µM) | 0.1 µg/mL (≈ 0.246 µM) | – |
| CC1(C)CN(c2ccc3c(=O)c(C(=O)O)cn(-c4ccc(F)cc4F)c3n2)CCC1N (centres undefined) | > 12.5 µg/mL | 1.56 µg/mL (≈ 3.64 µM) | – |
| CONC1CCN(c2c(F)cc3c(=O)c(C(=O)O)cn(C4CC4)c3c2OC)CC1(C)C (centres undefined) | 0.1 µg/mL (≈ 0.231 µM) | 0.8 µg/mL (≈ 1.85 µM) | MIC (Streptococcus pneumoniae [7]): > 6.25 µg/mL; MIC (Streptococcus pneumoniae [3]): 0.8 µg/mL (≈ 1.85 µM) |
| COc1c(N2CCC(NC3CC3)C(C)(C)C2)c(F)cc2c(=O)c(C(=O)O)cn(C3CC3)c12 (centres undefined) | 0.2 µg/mL (≈ 0.451 µM) | 0.8 µg/mL (≈ 1.8 µM) | MIC (Streptococcus pneumoniae [3]): 0.8 µg/mL (≈ 1.8 µM) |
| COc1c(N2CCC(N)C(C)(C)C2)c(F)cc2c(=O)c(C(=O)O)cn(C3CC3)c12 (single isomer, unassigned; (-)) | – | – | Activity [6]: 3.8% |
| COc1c(N2CC[C@@H](N)C(C)(C)C2)c(F)c(N)c2c(=O)c(C(=O)O)cn(C3CC3)c12 | > 12.5 µg/mL | 6.25 µg/mL (≈ 14.9 µM) | – |
| CCn1cc(C(=O)O)c(=O)c2cc(F)c(N3CCC(N)C(C)(C)C3)c(OC)c21 (centres undefined) | 6.25 µg/mL (≈ 16 µM) | 1.56 µg/mL (≈ 3.99 µM) | – |
| CCNC1C(C)CN(c2c(F)cc3c(=O)c(C(=O)O)cn(C4CC4)c3c2OC)CC1C (stereo in doubt) | – | – | MIC (Staphylococcus aureus [1]): 0.2 µg/mL (≈ 0.463 µM); MIC (Streptococcus pneumoniae [2]): 1.56 µg/mL (≈ 3.62 µM) |
| Cc1c(N2CCC(N)C(C)C2)c(F)cc2c(=O)c(C(=O)O)cn(C3CC3)c12.Cl (cis isomer) | – | – | EC50 (Streptococcus pneumoniae [8]): 30 mg/kg |
| CCN(CC)C1CCN(c2c(F)cc3c(=O)c(C(=O)O)cn(C4CC4)c3c2OC)CC1 | 0.2 µg/mL (≈ 0.463 µM) | 0.8 µg/mL (≈ 1.85 µM) | – |
| CCC1(C)CN(c2c(F)cc3c(=O)c(C(=O)O)cn(C4CC4)c3c2OC)CCC1N (centres undefined) | 0.1 µg/mL (≈ 0.24 µM) | 0.2 µg/mL (≈ 0.479 µM) | MIC (Streptococcus pneumoniae [7]): 2.5 µg/mL (≈ 5.99 µM) |
| Cc1c(F)c(N2CCC(N)C(C)(C)C2)nc2c1c(=O)c(C(=O)O)cn2-c1ccc(F)cc1F (centres undefined) | > 12.5 µg/mL | 1.56 µg/mL (≈ 3.39 µM) | – |
| COc1c(N2CCC(NC(C)=O)C(C)(C)C2)c(F)cc2c(=O)c(C(=O)O)cn(C3CC3)c12 (centres undefined) | 0.4 µg/mL (≈ 0.898 µM) | 1.56 µg/mL (≈ 3.5 µM) | – |
| CCNC1C(C)CN(c2c(F)cc3c(=O)c(C(=O)O)cn(C4CC4)c3c2OC)CC1C (trans isomer) | – | 1.56 µg/mL (≈ 3.62 µM) | MIC (Staphylococcus aureus [1]): 0.012 µg/mL (≈ 0.0278 µM) |
| Cc1c(N2CCC(N)C(C)(C)C2)c(F)cc2c(=O)c(C(=O)O)cn(C3CC3)c12 (single isomer, unassigned; (-)) | – | – | MIC (Staphylococcus aureus [4]; 18 h): 0.4 µg/mL (≈ 1.03 µM); MIC (Streptococcus pneumoniae [5]; 18 h): 0.4 µg/mL (≈ 1.03 µM); MIC (Staphylococcus aureus [9]): 0.8 µg/mL (≈ 2.06 µM); MIC (Staphylococcus aureus [10]): 0.8 µg/mL; EC50 (Streptococcus pneumoniae [8]): 20 mg/kg |
| COc1c(N2CC[C@@H](N)C(C)(C)C2)c(F)cc2c(=O)c(C(=O)O)cn(C3CC3)c12 | 0.05 µg/mL (≈ 0.124 µM) | – | MIC (Staphylococcus aureus [4]; [14]): 0.8 µg/mL (≈ 1.98 µM); MIC (Staphylococcus aureus [11]): 0.05 µg/mL (≈ 0.124 µM); MIC (Staphylococcus aureus [10]): 1.56 µg/mL; EC50 (Streptococcus pneumoniae [8]): 20 mg/kg |
| CC1(C)CN(c2c(F)cc3c(=O)c(C(=O)O)cn(C4CC4)c3c2F)CCC1N (centres undefined) | 3.12 µg/mL (≈ 7.97 µM) | 0.4 µg/mL (≈ 1.02 µM) | – |
| COc1c(N2CC(C)C(N(C)C)C(C)C2)c(F)cc2c(=O)c(C(=O)O)cn(C3CC3)c12 (centres undefined) | 0.1 µg/mL (≈ 0.232 µM) | 0.2 µg/mL (≈ 0.463 µM) | MIC (Streptococcus pneumoniae [3]): 0.2 µg/mL (≈ 0.463 µM) |
| CC1(C)CN(c2cc3c(cc2F)c(=O)c(C(=O)O)cn3C2CC2)CCC1N (centres undefined) | 12.5 µg/mL (≈ 33.5 µM) | 0.8 µg/mL (≈ 2.14 µM) | – |
| CC1COc2c(N3CCN(C)CC3)c(F)cc3c(=O)c(C(=O)O)cn1c23 (centres undefined) [OFLOXACIN] | 0.4 µg/mL (≈ 1.11 µM) | 0.4 µg/mL (≈ 1.11 µM) | – |
| Cc1c(N2CCC(N)C(C)C2)c(F)cc2c(=O)c(C(=O)O)cn(C3CC3)c12.Cl (centres undefined) | – | – | MIC (Staphylococcus aureus [4]): 1.56 µg/mL |
| CCC1(C)CN(c2c(F)cc3c(=O)c(C(=O)O)cn(C4CC4)c3c2OC)CCC1NC (centres undefined) | – | – | MIC (Streptococcus pneumoniae [7]): 6.25 µg/mL (≈ 14.5 µM); MIC (Streptococcus pneumoniae [3]): 1.56 µg/mL (≈ 3.62 µM) |
